Reference: US6028083A, “Esters of (+)-α-(2,3-dimethoxyphenyl)-1-[2-(4-fluorophenyl) ethyl]-4-piperidinemethanol” (Hoechst Marion Roussel, Inc., priority 1997, dated 2000)

Experiments:
5HT2A receptor [1] = assay: Antagonism of DOI-induced behaviors in rats; assay type: in vivo, Male Sprague-Dawley rats; conditions: single i.m. injection in sesame oil, 120 mg/kg equivalent to MDL 100,907, DOI 3.0 mg/kg i.p.
Excerpt: The compound of the present invention used in this test was (+)-α-(2,3-Dimethyoxyphenyl)-1-[2-(4-fluorophenyl)ethyl]-4-piperidinemethanol decanoate--Example 4 herein.-- The 5-HT2A/2C agonist (±)-DOI HCl (1-(2,5-dimethoxy-4-iodophenyl)-2-aminopropane hydrochloride) induces several quantifiable behaviors in rats. These behaviors include "shakes" (a quick head and body shake, a.k.a. wet dog shakes), "forepaw tapping" (rapid forepaw treading) and "skin-jerks" (paraspinal muscle contractions or dorsal skin-shrugging).
Male Sprague-Dawley rats (180±50 g) were housed seven per cage and allowed 1 week to acclimate to the vivarium. Food and water were freely available. The temperature and light cycle (12 h on-12 h off)were automatically maintained. Individual rats were tested once. Each testing group contained seven animals. Experiments took place in the vivarium room where the animals were housed.
Vehicle control animals were injected with sesame oil alone. (±)-DOI HCl (3.0 mg/kg, 1 mL/kg body weight) was dissolved in distilled water with the aid an ultrasonic bath, and injected intraperitoneally on appropriate testing days.
(+)-α-(2,3-Dimethyoxyphenyl)-1-[2-(4-fluorophenyl)ethyl]-4-piperidinementhanol decanoate-treated rats were tested for antagonism of DOI-induced behaviors 1, 5, 7, 14, 21, 28 and 40 days after the single (+)-α-(2,3-Dimethyoxyphenyl)-1-[2-(4-fluorophenyl)ethyl]-4-piperidinementhanol decanoate intramuscular injection. Each rat was tested once. Immediately after DOI injection rats were placed under inverted clear plastic boxes (28 L×25 W×25 H cm) which were arranged on top of clean absorbent paper. Rats were continuously watched by trained observers (blind to treatment) for 30 minutes for the occurrence of DOI-induced behaviors (shakes, skin-jerks and forepaw tapping bouts) and then returned to their home cages. Rats were later used for pharmacokinetic studies. The frequencies of DOI-induced behaviors were recorded and then summed to provide a single behavioral score for each animal.
The mean and standard error of the behavioral scores of each group was determined. […]

in vivo = assay: in vivo; set-up: species or system male Wistar rats; conditions: rat, im, 120 mg/kg
Experimental: Rats are anesthetized with a lethal i.p. dose of nembutal and blood collected at 3 and 6 hours, and various days post-dose (n=5 for each timepoint) in heparinized vacutainers. Blood samples are centrifuged for 30 minutes at 5 C and at approximately 2700 rpm. Plasma is removed and stored at -20° C. until assay. The plasma samples are analyzed by an appropriate HPLC method. Brains will also be collected at the above timepoints and stored at -80° C. until analyzed by the appropriate HPLC method.

[2] = Chronic Mild Stress Model of Depression (CMS), consumption of 1% sucrose solution; assay type: in vivo, Male Wistar rats
Excerpt: CMS uses mild stressors, such as food and water deprivation, small temperature changes, changes of cage mates, etc. Over a period of weeks of exposure to the mild stressors, the animals gradually reduce their consumption of a highly preferred sucrose solution which persists (in untreated animals) for several weeks following the cessation of stress. This decreased sensitivity to reward (the sucrose solution) reflects anhedonia, a symptom of a Major Depressive Episode (see for example, Behavioral Pharmacol.5: Suppl. 1, p. 86 (1994) where lithium, carbamazepine and ketoconazole were evaluated in CMS; Psychopharmacology 93:358-364 (1987) where a tricyclic antidepressant was evaluated in CMS; Behavioral Pharmacology:5:344-350 (1994) where a catechol-O-methyl transferase inhibitor was evaluated in CMS).
Male Wistar rats were brought into the laboratory two months before the start of the experiment at which time they weighed approximately 300 grams. Except as described below, the animals were singly housed, with food a water freely available, and maintained on a 12 hour light/dark cycle (lights on at 8 AM) at a temperature of 22±° C.
The animals were first trained to consume a 1% sucrose solution; training consisted of eight 1 hour baseline tests in which sucrose was presented, in the home cage, following 14 hours food and water deprivation; intake was measured by weighing pre-weighed bottles containing the sucrose solution at the end of the test. Subsequently, sucrose consumption was monitored, under similar conditions, at weekly intervals throughout the whole experiment.
On the basis of their sucrose intakes in the final baseline test, the animals were divided into two matched groups. One group of animals was subjected to a chronic mild stress procedure for a period of 9 consecutive weeks. Each week of stress regime consisted of: two periods of food or water deprivation (12 and 14 hour), two periods of 45 degree cage tilt (12 and 14 h), two periods of intermittent overnight illumination (lights on and off every 2 hours), two 14 hour periods of soiled cage (200 ml water in sawdust bedding), two 14 hour periods of paired housing, two 14 hour periods of low intensity stroboscopic illumination (150 flashes/min). Stressors were applied continuously throughout the day and night, and scheduled randomly. […] They were deprived of food and water for the 14 hours preceding each sucrose test, but otherwise food and water were freely available in the home cage. […] All drug injections were in a volume of 1 ml/kg body weight. Drugs were administered at 10 AM and sucrose tests were carried out 24 hours following the last drug treatment. After five weeks, the treatments were terminated and after one week of withdrawal a final sucrose test was carried out. Stress was continued throughout the period of treatment and withdrawal.
Results were analyzed by multiple analysis of variance, followed by Fisher's LSD test for post hoc comparisons of means.

5HT2A receptor [3] = conditions: cited from earlier work
platelets = conditions: U.S. Pat. No. 5,561,144, cited from earlier work
myocardial tissue = conditions: no source or data given; cited from earlier work
[4] = test system: PPI (prepulse inhibition); conditions: Psychopharmacology 124: 107-116 (1996); cited from earlier work
[5] = test system: dopamine efflux in the medial prefrontal cortex; conditions: European Journal of Pharmacology 273: 273-279 (1995); cited from earlier work
5HT2A receptor [6] = conditions: literature (Pranzatelli 1990; Wettstein et al. 1996); cited from earlier work
[7] = imipramine 10 mg/kg ip daily, five weeks
[8] = MDL 100,907 0.002, 0.02 and 0.2 mg/kg orally
[9] = MDL 100,907 0.002, 0.02 and 0.2 mg/kg orally, NS
[10] = MDL 100,907 0.02 and 0.2 mg/kg orally

CCCCCCCCCC(=O)O[C@@H](c1cccc(OC)c1OC)C1CCN(CCc2ccc(F)cc2)CC1 [Example 4, (+)-α-(2,3-Dimethyoxyphenyl)-1-[2-(4-fluorophenyl)ethyl]-4-piperidinementhanol decanoate]
antagonism of DOI-induced behavior at day 40 (5HT2A receptor [1]): no longer significant | duration of significant antagonism of DOI-induced behavior (5HT2A receptor [1]; p<=0.05): 28 days | antagonism of DOI-induced behavior (5HT2A receptor [1]; through day 28): Significantly antagonized DOI-induced behavior | concentration at 3 h (in vivo): 54.2 ± 13.3 ng/mL | concentration at 6 h (in vivo): 53.8 ± 17.1 ng/mL | concentration at 24 h (in vivo): 54.1 ± 18 ng/mL | concentration at 48 h (in vivo): 21.6 ± 7.39 ng/mL | concentration at 72 h (in vivo): 39 ± 5.64 ng/mL | concentration at 96 h (in vivo): 52 ± 12.9 ng/mL | concentration at 144 h (in vivo): 41.9 ± 14.6 ng/mL | concentration at 192 h (in vivo): 28.7 ± 9.16 ng/mL | concentration at 288 h (in vivo): 21 ± 12.8 ng/mL | concentration at 360 h (in vivo): 52.4 ± 15.2 ng/mL | concentration at 456 h (in vivo): 40.1 ± 8.44 ng/mL | concentration at 528 h (in vivo): 46.3 ± 9.31 ng/mL | concentration at 624 h (in vivo): 38.9 ± 9.35 ng/mL | concentration at 696 h (in vivo): 43.7 ± 10.8 ng/mL | concentration at 984 h (in vivo): 24.1 ± 9.15 ng/mL

CN(C)CCCN1c2ccccc2CCc2ccccc21 [Imipramine]
sucrose intake in stressed animals, F(1,84) ([2]; imipramine 10 mg/kg ip daily): 16.776 | sucrose intake in stressed animals, p (treatment) ([2]; imipramine 10 mg/kg ip daily): < 0.001 | sucrose intake of drug-treated stressed animals vs drug- and saline-treated controls ([2]; imipramine 10 mg/kg ip daily, after five weeks of treatment): no significant differences | effect on sucrose intake in control animals [2, 7]: no significant effect | effect on sucrose intake in stressed animals [2, 7]: gradual increase of sucrose intake | sucrose intake in stressed animals after withdrawal ([2]; imipramine 10 mg/kg ip daily, one week after withdrawal): maintained at similar level | sucrose intake in control animals, F(1,84) ([2]; imipramine 10 mg/kg ip daily, NS): 0.364

COc1cccc([C@H](O)C2CCN(CCc3ccc(F)cc3)CC2)c1OC [MDL 100,907, (+)-α-(2,3-dimethoxyphenyl)-1-[2-(4-fluorophenyl)ethyl]-4-piperidinemethanol]
effect on sucrose intake throughout the whole treatment period ([2]; MDL 100,907 0.002 mg/kg orally): no significant effect | sucrose intake in stressed animals vs Week 0 ([2]; MDL 100,907 0.02 mg/kg (after two weeks) and 0.2 mg/kg (after three weeks) orally): significantly increased from initial scores | sucrose intake in stressed animals, Treatment effect F(3,168) [2, 8]: 22.567 | sucrose intake in stressed animals, Treatment effect p [2, 8]: < 0.001 | sucrose intake in stressed animals, Treatment x Weeks interaction F(15,158) [2, 8]: 1.559 | sucrose intake in stressed animals, Treatment x Weeks interaction p [2, 8]: 0.05 | effect on sucrose intake in control animals ([2]; MDL 100,907 0.002, 0.02 and 0.2 mg/kg orally daily, five weeks): no significant effect | sucrose intake in control animals, Treatment effect F(3,168) [2, 9]: 0.821 | sucrose intake in control animals, Treatment x Weeks interaction F(15,168) [2, 9]: 0.499 | sucrose intake of stressed animals vs vehicle-treated controls at Week 5 [2, 10]: comparable to that of vehicle-treated controls | sucrose intake of stressed animals vs vehicle-treated stressed animals at Week 5 [2, 10]: significantly higher than that of vehicle-treated stressed animals | sucrose intake one week after withdrawal ([2]; MDL 100,907 all doses, control and stressed animals): not significantly changed | effect on CMS-induced deficit in sucrose intake in stressed animals ([2]; MDL 100,907 orally daily, five weeks): gradually reversed the CMS-induced deficit in sucrose intake | 5HT2A receptor antagonist potency (5HT2A receptor [3]): potent 5HT2A receptor antagonist | effect on rate at which platelets aggregate (platelets): decreases the rate at which platelets aggregate | prevention of acute thrombosis (platelets; especially of the coronary arteries): effective in the prevention of acute thrombosis | anti-arrhythmic class (Vaughan Williams) (myocardial tissue): Class III anti-arrhythmic activity | effect on action potential of myocardial tissue (myocardial tissue): increases the duration of the action potential of myocardial tissue | effect on disrupted PPI [4]: restore disrupted PPI | influence on dopamine efflux in the medial prefrontal cortex [5]: tonic inhibitory influence on dopamine efflux

Cc1nc2sccn2c(=O)c1CCN1CCC(=C(c2ccc(F)cc2)c2ccc(F)cc2)CC1 [ritanserin]
block of the behavioral effects of DOI (5HT2A receptor [6]): dose-dependently block the behavioral effects of DOI
